Entries after “also recorded” stand apart in the source; their conditions may differ. Where two headings read alike, the source gives them in different places.
Tests used:
[1] = biological target: T1, 5-HT2A receptor (Homo sapiens, UniProt P28223); test: 5-HT2A receptor functional screening assay (efficacy relative to maximal 5-HT response); type: cell-based; conditions: for activation at 0.5 µM: 500 nM
T1 construct: expressed in transfected cells
Method: (§1) 5-HT2 receptor-mediated Gq stimulation [phosphoinositide hydrolysis leading to the production of inositol phosphate 1 (IP1)]-canonical signaling pathways-were measured as previously described (Canal, C. E., Cordova-Sintjago, T., Liu, Y., Kim, M. S., Morgan, D., and Booth, R. G., 2013, Molecular pharmacology and ligand docking studies reveal a single amino acid difference between mouse and human serotonin 5-HT2A receptors that impacts behavioral translation of novel 4-phenyl-2-dimethylaminotetralin ligands, J Pharmacol Exp Ther 347, 705-716; Canal, C. E., Morgan, D., Felsing, D., Kondabolu, K., Rowland, N. E., Robertson, K. L., Sakhuja, R., and Booth, R. G., 2014, A Novel Aminotetralin-Type Serotonin (5-HT)(2C) Receptor —Specific Agonist and 5-HT2A Competitive Antagonist/5-HT2B Inverse Agonist with Preclinical Efficacy for Psychoses, J Pharm Exp Ther 349, 533), for example, with a homogeneous time-resolved fluorescence (HTRF) capable microplate reader (e.g., Mithras LB 940, Berthold) using commercially-available kits employing Fluorescence Resonance Energy Transfer (FRET) technology (e.g., IP-One HTRF (Cisbio) kits). Briefly, CHO-K1 or HEK293 cells expressing a single serotonergic 5-HT2 receptor subtype were incubated with test compounds and 5-HT or DOI (positive control) in stimulation buffer containing LiCl. After equilibration, the reaction was terminated with the donor and acceptor fluorescent conjugates in lysis buffer, and FRET was measured with a microplate reader (Berthold Mithras). Data were fit to non-linear curves to calculate potencies (e.g., EC50) and efficacies (e.g., EMAX), relative to positive controls (e.g., serotonin).

[2] = cited from earlier work
[3] = biological target: T2, human serotonin 5-HT2A receptor (Homo sapiens, UniProt P28223); test: Radioligand ([3H]LSD) competition binding, 5-HT2A receptor; conditions: for 5-HT2A receptor affinity (in words) / competition binding curve shape / Ki: [3H]LSD; for competition binding curve shape / competition for [3H]LSD-labeled 5-HT2A receptors: in words; for Ki: one-site fit Ki model; for competition for [3H]LSD-labeled 5-HT2A receptors: up to 10 μM for partial competition
T2 construct: host or cells: HEK293 (ATCC CRL-1573)
T2 sequence (P28223 whole entry): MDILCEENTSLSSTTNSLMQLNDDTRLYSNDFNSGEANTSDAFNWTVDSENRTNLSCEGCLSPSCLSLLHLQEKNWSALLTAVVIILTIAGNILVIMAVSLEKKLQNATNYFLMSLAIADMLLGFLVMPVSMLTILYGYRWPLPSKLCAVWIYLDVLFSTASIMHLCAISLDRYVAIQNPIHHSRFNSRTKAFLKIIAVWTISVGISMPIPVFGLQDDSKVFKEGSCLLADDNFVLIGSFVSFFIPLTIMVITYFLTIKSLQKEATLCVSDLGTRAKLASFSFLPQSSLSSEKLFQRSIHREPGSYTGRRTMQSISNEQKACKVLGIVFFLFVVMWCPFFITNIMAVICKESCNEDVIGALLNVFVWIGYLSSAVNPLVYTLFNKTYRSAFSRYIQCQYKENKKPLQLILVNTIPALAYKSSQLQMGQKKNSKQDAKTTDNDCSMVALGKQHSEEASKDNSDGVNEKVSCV
Method: Binding affinity (Ki) and functional potency and efficacy (EC50 and EMAX) values of the compounds were measured.
Radioligand competition binding was performed as previously described (Saraf, T. S., Felsing, D. E., Armstrong, J. L., Booth, R. G., and Canal, C. E., 2021, Evaluation of lorcaserin as an anticonvulsant in juvenile Fmr1 knockout mice, Epilepsy Res 175, 106677), with minor modifications, using human cloned 5-HT2A receptors. Plasmids encoding human serotonin 5-HT2A receptor cDNA were procured from the cDNA Resource Center. Human embryonic kidney cells (HEK293, ATCC CRL-1573) were grown in a cell incubator in 100 mm dishes with antibiotic-free Dulbecco's modified Eagle's medium containing 10% fetal bovine serum. Cells were transfected at ~85% confluency with 5-15 μg cDNA using TransIT-2020 reagent (Mirus Bio, Madison, Wisconsin). After approximately 48 hours, cell membrane was collected via centrifugation. For all experiments, serotonin (5-HT) hydrochloride was used as a positive control, and mianserin hydrochloride (10 μM) was used to define non-specific binding. Each cell membrane homogenate expressing 5-HT2A receptors was incubated at room temperature in 96-well plates with [^3H] […] Following equilibration, each sample was filtered rapidly under vacuum through fiberglass filters presoaked in a buffer and washed by vacuum several times with an ice-cold buffer. Filters were soaked with scintillation fluid and counts per minute were detected using photodetectors (Microbeta Scintillation Counter). […] Data shown are the results from all experiments combined. As is known, G protein-coupled receptors, including the 5-HT2A receptor, can exist in multiple conformations, and ligands, typically agonist ligands, have unique affinities for these conformations of the receptor (Kenakin, T. Theoretical Aspects of GPCR-Ligand Complex Pharmacology, Chem. Rev. 2017, 117, 1, 4-20). […] However, for simplicity reasons, affinity of these compounds are reported herein as fitted to the single-site model. The data point for −10 samples is total specific binding (no compound present), and −4 was interpolated to complete the binding curves to 0 specific binding.

[4] = tested on: 5-HT2A receptor; test: Head-twitch response (HTR) and behavioral observation in mice; type: in vivo, adult, male C57BL/6J mice; conditions: 10 mg/kg PO; for HTR (per min): 30 min counting; for elicitation of HTR (in words) / qualitative behavioral changes: mice
Method: The HTR assay was performed in adult, male C57BL/6J mice, procured from the Jackson Laboratory (Bar Harbor, Maine), as previously described (Canal, C. E., and Morgan, D., 2012, Head-twitch response in rodents induced by the hallucinogen 2,5-dimethoxy-4-iodoamphetamine: a comprehensive history, a re-evaluation of mechanisms, and its utility as a model, Drug Test Anal 4, 556-576; Saraf, T. S., Felsing, D. E., Armstrong, J. L., Booth, R. G., and Canal, C. E., 2021, Evaluation of lorcaserin as an anticonvulsant in juvenile Fmr1 knockout mice, Epilepsy Res 175, 106677). Mice were housed in standard laboratory cages with ad libitum access to food and water, and were acclimated to the vivarium for at least one week prior to testing in a procedure room. On the day of testing, mice were acclimated to the procedure room in their home cages for ≥60 min before administration of test compounds. Test articles were administered at 10 mg/kg by oral gavage and mice were placed immediately thereafter in a clear, polycarbonate box (46×20×20 cm), and HTRs were counted for 30 consecutive minutes, using hand-held tally counters, by two trained observers who were blind to treatment.

[5] = in vivo; type: in vivo, adult, male C57BL/6J mice; conditions: 10 mg/kg PO; for concentration at 10 min / concentration at 0.5 h / concentration at 2 h: mouse, in vivo, po, 10 mg/kg; for concentration at 0.5 h: 30 min; for concentration at 2 h: 120 min
Method: PK profiles were established in adult, male C57BL/6J (Jackson Laboratories). Mice were housed in standard laboratory cages with ad libitum access to food and water, and were acclimated to the vivarium for at least one week prior to testing in a procedure room. In a typical experiment, mice were administered 10 mg/kg of test compound by oral gavage and plasma and brain samples were collected at 10, 30, and 120 min with n-3 for each time point. Quantification of the parent molecule was done using LC-MS/MS method (LLOQ, 0.9 nM).

[6] = biological target: T1, 5-HT2A receptor; test: Dose-response 5-HT2A functional assay (IP1 formation); type: cell-based
Method: (§2) FIG. 27 is a graph showing the dose-response 5-HT2A functional assay results as a percent of control agonist response for compound II-2; tested in duplicate at the indicated concentrations and the EC50 values were determined by non-linear regression analysis of the concentration-response curves generated with mean replicate values using Hill equation curve fitting;
as §2, with “28” for “27”, “compounds III-2 and IV-21;” for “compound II-2;”, “fitting; and” for “fitting;”
as §1
The results from tests of 5-HT2A functional activities of this series of compounds were also unexpected in the context of the unusual results observed from competition binding assays. […] Complete dose-response 5-HT2A and 5HT2B functional assays (measuring IP1 formation) were conducted for III-2 and IV-21 by a second, independent laboratory.

[7] = brain, read-out: PK data, Brain, 10 min
[8] = brain, read-out: PK data, Brain, 30 min
[9] = brain, read-out: PK data, Brain, 120 min
[10] = plasma, read-out: PK data, Plasma, 10 min
[11] = plasma, read-out: PK data, Plasma, 30 min
[12] = plasma, read-out: PK data, Plasma, 120 min

T1 sequence (P28223 whole entry): as above

Oc1cccc2[nH]cc(CCN(CCC(F)(F)F)CCC(F)(F)F)c12 [III-3, 3-(2-(bis(3,3,3-trifluoropropyl)amino)ethyl)-1H-indol-4-ol]
activation at 0.5 µM [1]: 29.2%
activation at 50 µM [1]: > 50%

CN(CCc1c[nH]c2ccccc12)CC(F)F [II-12, N-(2-(1H-indol-3-yl)ethyl)-2,2-difluoro-N-methylethan-1-amine]
activation at 0.5 µM [1]: 19.9%
activation at 50 µM [1]: 30.3%

CN(C)CCc1c[nH]c2cccc(OP(=O)(O)O)c12 [Psilocybin, psilocybin]
MAO-mediated metabolism ([2]; in vivo): undergo MAO-mediated metabolism in vivo

CN(CCc1c[nH]c2cccc(O)c12)CCC(F)(F)F [III-6, 3-(2-(methyl (3,3,3-trifluoropropyl)amino)ethyl)-1H-indol-4-ol]
5-HT2A receptor affinity (in words) [3]: high affinities; also recorded: potent affinity
competition binding curve shape [3]: multiple slopes
Ki [3]: 12 nM
competition for [3H]LSD-labeled 5-HT2A receptors [3]: complete competition
activation at 0.5 µM [1]: 53.5%
activation at 50 µM [1]: > 50%
5-HT2A functional activity (in words) ([1]; in vitro screening, II-15: both 500 nM and 50 μM): agonist activity; also recorded: behaved as an agonist
HTR (per min) [4]: <1 per min
elicitation of HTR (in words) [4]: did not elicit a HTR; also recorded: did not elicit the 5-HT2A-dependent HTR
qualitative behavioral changes [4]: reduced locomotion and “hiccup” responses; also recorded: “hiccup” like responses and caused hypolocomotion
concentration at 10 min [5, 7]: 200 to 1300 nM
concentration at 0.5 h [5, 8]: 120 to 420 nM
concentration at 2 h [5, 9]: 3 to 20 nM
concentration at 10 min [5, 10]: 170 to 620 nM
concentration at 0.5 h [5, 11]: 72 to 180 nM
concentration at 2 h [5, 12]: 2 to 16 nM

FC(F)CCN(CCc1c[nH]c2ccccc12)CCC(F)F [II-2, N-(2-(1H-indol-3-yl)ethyl)-N-(3,3-difluoropropyl)-3,3-difluoropropan-1-amine]
activation at 0.5 µM [1]: 1.4%
EC50 ([6]; IP1 formation): 596 nM
Emax ([6]; percent of control agonist response): 79%

FC(F)(F)CN(CCc1c[nH]c2ccccc12)CC(F)(F)F [II-10, N-(2-(1H-indol-3-yl)ethyl)-2,2,2-trifluoro-N-(2,2,2-trifluoroethyl) ethan-1-amine]
competition for [3H]LSD-labeled 5-HT2A receptors [3]: only partial competition

COc1ccc2[nH]cc(CCN(C)C)c2c1 [Compound 5-MeO-DMT, 5-methoxy-N,N-dimethyltryptamine]
duration of action ([2]; in vivo): 5 to 15 min
oral activity / oral bioavailability ([2]; oral): lacks oral bioavailability

FC(F)(F)CCN(CCc1c[nH]c2ccccc12)CCC(F)(F)F [II-3, N-(2-(1H-indol-3-yl)ethyl)-3,3,3-trifluoro-N-(3,3,3-trifluoropropyl) propan-1-amine]
activation at 0.5 µM [1]: -29.7%
activation at 50 µM [1]: > 50%

CN(C)CCc1c[nH]c2ccc(SC(F)(F)F)cc12 [Compound I-3, N,N-dimethyl-2-(5-((trifluoromethyl)thio)-1H-indol-3-yl) ethan-1-amine]
activation at 0.5 µM [1]: -34.2%
activation at 50 µM [1]: 43.9%

FC1(F)CCN(CCc2c[nH]c3ccccc23)CC1 [II-21, 3-(2-(4,4-difluoropiperidin-1-yl)ethyl)-1H-indole]
activation at 0.5 µM [1]: 9.2%
activation at 50 µM [1]: -25.4%

CN(C)CCc1c[nH]c2cccc(O)c12 [psilocin]
MAO-mediated metabolism ([2]; in vivo): undergo MAO-mediated metabolism in vivo

CN(C)CCc1c[nH]c2ccccc12 [DMT, N,N-dimethyltryptamine]
oral activity / oral bioavailability ([2]; in vivo, po): not orally active
duration of action ([2]; in vivo): 5 to 15 min

CN(CCc1c[nH]c2cccc(O)c12)CC(F)F [III-12, 3-(2-((2,2-difluoroethyl)(methyl)amino)ethyl)-1H-indol-4-ol]
activation at 0.5 µM [1]: 17.8%
activation at 50 µM [1]: > 50%

CN(CCc1c[nH]c2ccccc12)CCC(F)(F)F [II-6, N-(2-(1H-indol-3-yl)ethyl)-3,3,3-trifluoro-N-methylpropan-1-amine]
5-HT2A receptor affinity (in words) [3]: high affinities
competition binding curve shape [3]: multiple slopes
Ki [3]: 12 nM
competition for [3H]LSD-labeled 5-HT2A receptors [3]: complete competition
activation at 0.5 µM [1]: -7.7 ± 11.6%
activation at 50 µM [1]: -3.1 ± 9.6%
HTR (per min) [4]: <1 per min
elicitation of HTR (in words) [4]: did not elicit a HTR
qualitative behavioral changes [4]: reduced locomotion and “hiccup” responses
brain penetration (in words) ([5]; mice): brain-penetrant
concentration at 10 min [5, 7]: 1550 to 12600 nM
concentration at 0.5 h [5, 8]: 720 to 4710 nM
concentration at 2 h [5, 9]: 21 to 1130 nM
concentration at 10 min [5, 10]: 820 to 7760 nM
concentration at 0.5 h [5, 11]: 390 to 3140 nM
concentration at 2 h [5, 12]: 7 to 440 nM

From patent publication US20260337162A1, “TRYPTAMINE COMPOUNDS, COMPOSITIONS, AND METHODS OF USE” (priority 2022, published 2026)
